Experimental data from PubChem BioAssay (NCI).
Where “and” joins values, the source holds several entries; their conditions need not be identical. Equal entries are not always repeated.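 Exposure lasted 48 hours, with cells grown in 96-well plates and compounds tested at five concentrations. GI50 marks 50% less growth. TGI: concentration producing complete growth inhibition.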

Key:
Assay in all cases: NCI-60 cell line screen, 48 h
[1] = system: SK-OV-3 ovarian
[2] = system: SR leukemia
[3] = system: U251 CNS
[4] = system: DU-145 prostate
[5] = system: RXF 393 renal
[6] = system: NCI-H460 lung
[7] = system: OVCAR-8 ovarian
[8] = system: UACC-62 melanoma
[9] = system: CCRF-CEM leukemia
[10] = system: IGROV1 ovarian

Q: What does the source list for `C=CC(=O)Nc1cc2c(Nc3ccc(F)c(Cl)c3)ncnc2cc1C#CC(C)(C)N1CCN(C)CC1`?
A: GI50 [1]: 0.953 µM; TGI [1]: 4.59 µM; GI50 [2]: 0.746 µM; TGI [2]: 5.61 µM; GI50 [3]: 2.66 µM; TGI [3]: 5.48 µM; GI50 [4]: 1.11 µM; TGI [4]: 4.86 µM; GI50 [5]: 0.837 µM; TGI [5]: 2.15 µM; GI50 [6]: 2.91 µM; TGI [6]: 6.69 µM; GI50 [7]: 1.85 µM; TGI [7]: 5.35 µM; GI50 [8]: 2.94 µM; TGI [8]: 5.58 µM; GI50 [9]: 1.24 µM; TGI [9]: 5.08 µM; GI50 [10]: 0.175 µM; TGI [10]: 1.4 µM

Q: Which GI50 [1] does the source give for `CSC1=Nc2c(c(C)c(-c3ccccc3)n2COC(CO)CO)C2=NC(=O)CC(C)N12` (stereo not drawn) here?
A: > 100 µM

Q: And the TGI [1]?
A: > 100 µM

Q: And the GI50 [2]?
A: > 100 µM

Q: And the TGI [2]?
A: > 100 µM

Q: And the GI50 [3]?
A: > 100 µM

Q: What about the TGI [3] of the same compound?
A: > 100 µM

Q: What about the GI50 [4] of the same compound?
A: > 100 µM

Q: What about the TGI [4] of the same compound?
A: > 100 µM

Q: And the GI50 [5]?
A: > 100 µM

Q: And the TGI [5]?
A: > 100 µM

Q: And the GI50 [6]?
A: > 100 µM

Q: And the TGI [6]?
A: > 100 µM

Q: What about the GI50 [7] of the same compound?
A: > 100 µM

Q: And the TGI [7]?
A: > 100 µM

Q: And the GI50 [8]?
A: > 100 µM

Q: What about the TGI [8] of the same compound?
A: > 100 µM

Q: And the GI50 [9]?
A: > 100 µM

Q: What about the TGI [9] of the same compound?
A: > 100 µM

Q: And the GI50 [10]?
A: > 100 µM

Q: And the TGI [10]?
A: > 100 µM

Q: What does the source list for `NCCCN=c1ccc2c3c1c(O)c1c(O)ccc(=O)c1c3[nH]n2CCNCCO`?
A: GI50 [1]: 1.51 µM; TGI [1]: 16.2 µM and 55.7 µM; GI50 [2]: 0.291 µM; GI50 [3]: 0.606 µM and 0.485 µM; TGI [3]: 5.61 µM and 27.7 µM; GI50 [4]: 1 µM; TGI [4]: 5.57 µM and 8.3 µM; GI50 [5]: 3.03 µM and 1.21 µM; TGI [5]: 8.38 µM and 5.39 µM; GI50 [6]: 0.117 µM and 0.12 µM; TGI [6]: 3.66 µM and 15.7 µM; GI50 [7]: 3.34 µM and 1.15 µM; TGI [7]: 15.7 µM and 20 µM; GI50 [8]: 0.792 µM; TGI [8]: 5.66 µM and 6.48 µM; GI50 [9]: 0.583 µM and 0.478 µM; TGI [9]: 8.77 µM and 28.3 µM; TGI [10]: 15.4 µM and 129 µM
